Data taken from ChEMBL document CHEMBL4680194, “Synthesis and biological evaluation of 1,2,4-triazole derivatives as potential neuroprotectant against ischemic brain injury” (Eur J Med Chem, 2020).
The source made the active and inactive calls. The calls are words filed in the database; no cut-off is given here.

Columns and labels:
[1] = Metal chelating activity of the compound assessed as Fe2+-compound complex formation incubated for 10 mins in presence of ferrozine by UV-visible spectrophotometry
PC-12 [2] = assay: Cytoprotective activity against SNP-induced cell death in rat PC-12 cells assessed as increase in cell viability at 10 uM incubated for 1 hr followed by SNP stimulation and measured after 24 hrs by MTT assay; assay type: functional; details: time 25.0 hrs
PC-12 [3] = assay: Cytoprotective activity against H2O2-induced cell death in rat PC-12 cells assessed as increase in cell viability at 10 uM incubated for 1 hr followed by H2O2 stimulation and measured after 5 hrs by MTT assay; assay type: functional; details: time 6.0 hrs
PC-12 [4] = assay: Cytoprotective activity against SNP-induced cell death in rat PC-12 cells assessed as increase in cell viability incubated for 1 hr followed by SNP stimulation and measured after 24 hrs by LDH assay; assay type: functional, cell-based; details: time 25.0 hrs
PC-12 [5] = assay: Cytoprotective activity against H2O2-induced cell death in rat PC-12 cells assessed as increase in cell viability incubated for 1 hr followed by H2O2 stimulation and measured after 5 hrs by LDH assay; assay type: functional, cell-based; details: time 6.0 hrs

Row | Structure (SMILES) | IC50 ([1]; read-out: IC50) | Activity (PC-12 [2]) | Activity (PC-12 [3]) | Activity (PC-12 [4]) | Activity (PC-12 [5]) | IC50 [1]
1 | NS(=O)(=O)c1ccc(-n2nc(-c3ccc([N+](=O)[O-])cc3O)nc2-c2ccccc2O)cc1 | 27.5 µM | Active | Active | Dose-dependent effect | Dose-dependent effect | –
2 | NS(=O)(=O)c1ccc(-n2nc(-c3ccc(C(F)(F)F)cc3O)nc2-c2ccccc2O)cc1 | 22.6 µM | Active | Active | Dose-dependent effect | Dose-dependent effect | –
3 | Cc1ccc(-c2nc(-c3ccccc3O)n(-c3ccc(S(N)(=O)=O)cc3)n2)c(O)c1 | 35.1 µM | Active | Active | Dose-dependent effect | Dose-dependent effect | –
4 | NS(=O)(=O)c1ccc(-n2nc(-c3ccc(C(F)(F)F)cc3O)nc2-c2ccc(C(F)(F)F)cc2O)cc1 | – | inactive | inactive | – | – | –
5 | NS(=O)(=O)c1ccc(-n2nc(-c3ccc(Cl)cc3O)nc2-c2ccccc2O)cc1 | 36 µM | Active | Active | Dose-dependent effect | Dose-dependent effect | –
6 | NS(=O)(=O)c1ccc(-n2nc(-c3ccc(C(F)(F)F)cc3)nc2-c2ccccc2O)cc1 | – | inactive | inactive | – | – | Not Active
7 | NS(=O)(=O)c1ccc(-n2nc(-c3ccc(F)cc3O)nc2-c2ccc(F)cc2O)cc1 | – | inactive | inactive | – | – | –
8 | Cc1ccc(-c2nc(-c3ccc(C)cc3O)n(-c3ccc(S(N)(=O)=O)cc3)n2)c(O)c1 | – | inactive | inactive | – | – | –
9 | NS(=O)(=O)c1ccc(-n2nc(-c3ccccc3O)nc2-c2ccccc2O)cc1 | 42.9 µM | Active | Active | Dose-dependent effect | Dose-dependent effect | –
10 | NS(=O)(=O)c1ccc(-n2nc(-c3ccc(F)cc3O)nc2-c2ccccc2O)cc1 | 46.2 µM | Active | Active | Dose-dependent effect | Dose-dependent effect | –
11 | NS(=O)(=O)c1ccc(-n2nc(-c3ccc([N+](=O)[O-])cc3)nc2-c2ccccc2O)cc1 | – | inactive | inactive | – | – | Not Active
12 | NS(=O)(=O)c1ccc(-n2nc(-c3ccccc3)nc2-c2ccccc2O)cc1 | – | inactive | inactive | – | – | Not Active
13 | NS(=O)(=O)c1ccc(-n2nc(-c3ccc(F)cc3)nc2-c2ccccc2O)cc1 | – | inactive | inactive | – | – | Not Active
